Assay results taken from PMC4753328, “Muscle-Type Nicotinic Receptor Blockade by Diethylamine, the Hydrophilic Moiety of Lidocaine” (Frontiers in Molecular Neuroscience, 2016).

Columns and labels:
[1] = molecular target: T1, muscle-type nicotinic acetylcholine receptor (nAChR) (Torpedo marmorata, UniProt P02711+Q6S3H8+Q6S3H9+Q6S3I0); test: two-electrode voltage clamp, inhibition of currents evoked by […] ACh at −[…] mV; type: cell-based
T1 construct: gene CHRNA1; native nAChR purified from electroplax, reconstituted in asolectin lipids and microtransplanted to Xenopus oocytes; with β, γ and δ subunits of the heteropentamer
T1 sequence (P02711 25-461): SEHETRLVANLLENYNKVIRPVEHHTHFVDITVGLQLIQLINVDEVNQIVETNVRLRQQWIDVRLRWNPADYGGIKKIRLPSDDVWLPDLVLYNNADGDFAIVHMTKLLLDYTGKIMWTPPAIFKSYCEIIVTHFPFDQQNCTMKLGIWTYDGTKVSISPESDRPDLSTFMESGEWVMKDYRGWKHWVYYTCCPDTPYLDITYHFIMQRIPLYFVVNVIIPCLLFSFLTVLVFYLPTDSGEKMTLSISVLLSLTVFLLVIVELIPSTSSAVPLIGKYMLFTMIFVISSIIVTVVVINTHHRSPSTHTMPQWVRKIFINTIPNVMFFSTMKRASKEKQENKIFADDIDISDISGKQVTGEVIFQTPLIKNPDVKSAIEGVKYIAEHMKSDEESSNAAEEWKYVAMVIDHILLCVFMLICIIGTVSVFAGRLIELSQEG
T1 sequence (Q6S3I0 25-493): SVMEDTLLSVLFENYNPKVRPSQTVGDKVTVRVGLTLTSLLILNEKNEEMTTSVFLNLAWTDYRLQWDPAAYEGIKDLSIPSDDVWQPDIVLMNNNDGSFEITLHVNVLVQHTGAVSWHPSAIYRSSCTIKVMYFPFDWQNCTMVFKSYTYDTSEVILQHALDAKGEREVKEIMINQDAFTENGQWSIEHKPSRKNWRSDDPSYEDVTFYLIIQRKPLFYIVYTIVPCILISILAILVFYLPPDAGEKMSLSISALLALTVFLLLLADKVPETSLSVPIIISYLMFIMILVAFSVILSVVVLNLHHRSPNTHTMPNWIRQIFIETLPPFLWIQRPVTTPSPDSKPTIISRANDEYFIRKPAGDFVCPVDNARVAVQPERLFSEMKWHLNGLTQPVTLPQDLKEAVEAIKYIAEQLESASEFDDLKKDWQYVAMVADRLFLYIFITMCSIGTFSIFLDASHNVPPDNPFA
T1 sequence (Q6S3H9 18-505): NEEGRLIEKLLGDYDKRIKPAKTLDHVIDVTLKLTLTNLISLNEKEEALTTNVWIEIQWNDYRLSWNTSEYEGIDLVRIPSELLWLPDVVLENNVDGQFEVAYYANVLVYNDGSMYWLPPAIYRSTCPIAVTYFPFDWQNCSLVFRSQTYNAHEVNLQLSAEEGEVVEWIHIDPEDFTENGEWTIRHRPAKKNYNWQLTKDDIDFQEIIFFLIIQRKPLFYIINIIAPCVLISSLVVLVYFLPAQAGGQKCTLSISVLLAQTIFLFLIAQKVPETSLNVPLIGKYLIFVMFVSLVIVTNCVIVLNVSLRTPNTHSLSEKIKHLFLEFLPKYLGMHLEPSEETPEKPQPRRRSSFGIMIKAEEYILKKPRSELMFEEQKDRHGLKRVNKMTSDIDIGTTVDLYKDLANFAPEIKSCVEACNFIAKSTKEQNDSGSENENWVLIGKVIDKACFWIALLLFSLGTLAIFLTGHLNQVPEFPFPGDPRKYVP
T1 sequence (Q6S3H8 22-522): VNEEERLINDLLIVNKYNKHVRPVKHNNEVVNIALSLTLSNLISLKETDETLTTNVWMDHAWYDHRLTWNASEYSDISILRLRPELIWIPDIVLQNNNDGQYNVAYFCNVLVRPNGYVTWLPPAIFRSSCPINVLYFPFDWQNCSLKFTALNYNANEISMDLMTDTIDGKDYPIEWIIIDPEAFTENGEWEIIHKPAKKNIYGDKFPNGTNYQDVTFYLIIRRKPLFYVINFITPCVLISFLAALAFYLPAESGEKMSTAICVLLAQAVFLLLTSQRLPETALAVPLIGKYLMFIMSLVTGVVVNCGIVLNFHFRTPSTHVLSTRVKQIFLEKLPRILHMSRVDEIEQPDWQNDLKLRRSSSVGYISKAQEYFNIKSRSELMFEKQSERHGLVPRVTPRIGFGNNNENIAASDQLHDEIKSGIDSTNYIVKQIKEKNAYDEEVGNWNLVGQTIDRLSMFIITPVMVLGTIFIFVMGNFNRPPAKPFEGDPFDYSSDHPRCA

[2] = molecular target: T1, muscle-type nicotinic acetylcholine receptor (nAChR); test: two-electrode voltage clamp, ACh concentration-current curve (agonist); type: cell-based

Row | Compound | IC50 [1] [µM] | EC50 [2] [µM]
1 | CCNCC [DEA, diethylamine] | 68 | 
2 | CC(=O)OCC[N+](C)(C)C [ACh, acetylcholine] |  | 46
